According to ChEMBL document CHEMBL1201862, “PubChem BioAssay data set” (2004):
Activity calls are given as the source filed them.

Key:
HEK293 [1] = assay: Fluorescence-based counterscreen for potentiators or agonists of NPY-Y2: cell-based high-throughput dose response assay to identify inhibitors of cyclic nucleotide gated ion channel (CNGC) activity. In this assay, the parental HEK293 cell line transfected with a cyclic-nucleotide gated ion channel (CNGC)-based cAMP sensor is used to measure inhibition of isoproterenol-induced CNGC activity by test compound.; format: functional; settings: Homo sapiens
[2] = target: T1, Neuropeptide Y receptor type 1 (Homo sapiens, UniProt P25929); assay: Fluorescence-based counterscreen for agonists of NPY-Y2: cell-based high-throughput dose response assay for agonists of NPY-Y1.; format: functional
T1 sequence (P25929 whole entry): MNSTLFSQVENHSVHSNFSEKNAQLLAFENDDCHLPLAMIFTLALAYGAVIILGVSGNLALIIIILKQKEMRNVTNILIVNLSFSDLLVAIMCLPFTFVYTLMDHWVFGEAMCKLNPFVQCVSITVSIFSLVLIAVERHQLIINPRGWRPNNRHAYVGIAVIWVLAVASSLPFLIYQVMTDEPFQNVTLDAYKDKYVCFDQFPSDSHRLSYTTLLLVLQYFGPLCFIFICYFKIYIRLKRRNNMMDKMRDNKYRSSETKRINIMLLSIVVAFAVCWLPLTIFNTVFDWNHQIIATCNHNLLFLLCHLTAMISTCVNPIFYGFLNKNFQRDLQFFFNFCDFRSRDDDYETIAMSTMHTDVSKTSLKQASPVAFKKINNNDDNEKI

[3] = target: T2, Neuropeptide Y receptor type 2 (Homo sapiens, UniProt P49146); assay: Fluorescence-based cell-based high-throughput dose response assay for agonists of NPY-Y2. [Related pubchem assays: 1703 (Screening assay (CNGC inhibitors).), 1359 (Screening assay (NPY-Y2 potentiators or agonists).), 1304 (Screening assay (NPY-Y1 potentiators or agonists).), 1710 (Screening assay (NPY-Y2 agonists).), 1791 (Summary AID.)]; format: functional
T2 sequence (P49146 whole entry): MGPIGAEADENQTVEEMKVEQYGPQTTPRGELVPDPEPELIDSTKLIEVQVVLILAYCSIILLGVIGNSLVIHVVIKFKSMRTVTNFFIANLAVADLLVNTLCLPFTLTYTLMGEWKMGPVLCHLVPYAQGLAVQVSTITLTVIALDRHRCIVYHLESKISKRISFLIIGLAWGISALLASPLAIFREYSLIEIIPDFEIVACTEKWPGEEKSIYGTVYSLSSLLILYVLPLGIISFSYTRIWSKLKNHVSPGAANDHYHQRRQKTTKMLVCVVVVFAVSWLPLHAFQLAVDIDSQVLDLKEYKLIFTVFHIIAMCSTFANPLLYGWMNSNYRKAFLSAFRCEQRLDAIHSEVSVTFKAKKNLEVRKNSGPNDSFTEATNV

[4] = target: T3, Heat shock factor protein 1 (Mus musculus, UniProt P38532); assay: inhibition of MG132-induced HSE-luciferase signal, confirmation, cell-based, NIH3T3, luminescence, dose retest (AID 2382); format: functional;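 further: NIH3T3 fibroblasts with HSF1-driven luciferase reporter stressed by proteasome inhibitor MG132; luminescence from HSF1-driven luciferase expression after 8 hours of MG132 stress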
T3 sequence (P38532 whole entry): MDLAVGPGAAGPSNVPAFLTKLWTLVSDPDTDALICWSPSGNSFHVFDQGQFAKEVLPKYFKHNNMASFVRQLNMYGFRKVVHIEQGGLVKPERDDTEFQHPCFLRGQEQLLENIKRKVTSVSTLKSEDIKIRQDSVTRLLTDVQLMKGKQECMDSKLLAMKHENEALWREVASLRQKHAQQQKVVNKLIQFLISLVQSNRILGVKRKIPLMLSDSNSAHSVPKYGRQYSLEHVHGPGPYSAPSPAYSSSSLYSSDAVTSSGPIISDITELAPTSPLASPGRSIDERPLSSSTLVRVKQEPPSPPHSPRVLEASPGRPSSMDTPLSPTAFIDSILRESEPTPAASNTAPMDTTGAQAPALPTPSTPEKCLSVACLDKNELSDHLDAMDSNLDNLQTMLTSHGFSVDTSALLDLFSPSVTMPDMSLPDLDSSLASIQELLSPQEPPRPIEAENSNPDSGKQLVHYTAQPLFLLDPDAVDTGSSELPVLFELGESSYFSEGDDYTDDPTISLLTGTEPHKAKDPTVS

[5] = target: Hepatocyte nuclear factor 4-alpha (Homo sapiens, UniProt P41235); format: functional, cell-based;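 further: biochemical luminescence-based dose-response counterscreen measuring inhibition of HNF4 dimerization, run alongside a screen for blockers of ABHD5–perilipin-5 interaction; split luciferase complementation of HNF4 fusion proteins in cell lysate measuring dimerization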
Chain of Hepatocyte nuclear factor 4-alpha (P41235 whole entry, the tested form may be a part): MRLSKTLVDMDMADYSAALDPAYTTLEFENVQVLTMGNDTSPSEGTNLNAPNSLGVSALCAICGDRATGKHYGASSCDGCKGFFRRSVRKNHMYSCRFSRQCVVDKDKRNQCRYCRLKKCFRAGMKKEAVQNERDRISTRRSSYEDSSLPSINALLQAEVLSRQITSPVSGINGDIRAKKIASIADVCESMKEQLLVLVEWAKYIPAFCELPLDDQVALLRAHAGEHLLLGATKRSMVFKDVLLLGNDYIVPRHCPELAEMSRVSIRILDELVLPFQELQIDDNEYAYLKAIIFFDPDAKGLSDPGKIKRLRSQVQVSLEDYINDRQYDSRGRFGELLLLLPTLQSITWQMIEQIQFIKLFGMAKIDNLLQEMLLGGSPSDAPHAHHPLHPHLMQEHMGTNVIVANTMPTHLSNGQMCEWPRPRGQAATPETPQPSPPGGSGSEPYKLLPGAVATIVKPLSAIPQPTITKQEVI

[6] = target: T4, High affinity choline transporter 1 (Homo sapiens, UniProt Q9GZV3); assay: CHT inhibitors, dose response, cell-based, 5-point CRC, membrane potential dye (AID 504840); format: functional
T4 sequence (Q9GZV3 whole entry): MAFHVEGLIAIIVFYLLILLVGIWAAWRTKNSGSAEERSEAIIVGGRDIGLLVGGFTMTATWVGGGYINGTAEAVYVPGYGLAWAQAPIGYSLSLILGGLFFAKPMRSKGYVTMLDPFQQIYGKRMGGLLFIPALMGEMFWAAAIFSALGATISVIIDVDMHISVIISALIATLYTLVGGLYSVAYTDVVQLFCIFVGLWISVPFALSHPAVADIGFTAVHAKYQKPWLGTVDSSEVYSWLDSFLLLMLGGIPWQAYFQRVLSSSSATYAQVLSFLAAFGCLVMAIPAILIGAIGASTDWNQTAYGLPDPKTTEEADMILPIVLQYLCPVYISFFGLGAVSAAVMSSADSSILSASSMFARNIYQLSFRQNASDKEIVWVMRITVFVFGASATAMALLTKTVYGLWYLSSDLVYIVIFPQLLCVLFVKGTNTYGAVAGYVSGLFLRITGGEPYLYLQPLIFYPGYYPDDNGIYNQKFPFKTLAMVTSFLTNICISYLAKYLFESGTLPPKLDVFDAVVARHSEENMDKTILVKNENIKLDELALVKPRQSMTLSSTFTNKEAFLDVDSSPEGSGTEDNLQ

[7] = Shn3 3'UTR reporter inhibitors, dose response, cell-based, Clone20 osteoblasts, firefly luciferase, cherry-picked (AID 624132); format: functional;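 further: firefly luciferase luminescence from reporter carrying the Shn3 3'UTR in osteoblasts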
[8] = Intein inhibitors as potential Tuberculosis drugs, a cytotoxicity screen. [Related pubchem assays (depositor defined):AID2221, AID2223, AID434968, AID435010, AID449749, AID449750, AID489010]; format: functional
Genome polyprotein = Genome polyprotein (dengue virus type 2, UniProt P29990); assay: Dengue-2 NS5 methyltransferase inhibitors, primary screen, biochemical, confirmation dose response (AID 588689); format: functional
Chain of Genome polyprotein (P29990 2492-3391 limits assumed): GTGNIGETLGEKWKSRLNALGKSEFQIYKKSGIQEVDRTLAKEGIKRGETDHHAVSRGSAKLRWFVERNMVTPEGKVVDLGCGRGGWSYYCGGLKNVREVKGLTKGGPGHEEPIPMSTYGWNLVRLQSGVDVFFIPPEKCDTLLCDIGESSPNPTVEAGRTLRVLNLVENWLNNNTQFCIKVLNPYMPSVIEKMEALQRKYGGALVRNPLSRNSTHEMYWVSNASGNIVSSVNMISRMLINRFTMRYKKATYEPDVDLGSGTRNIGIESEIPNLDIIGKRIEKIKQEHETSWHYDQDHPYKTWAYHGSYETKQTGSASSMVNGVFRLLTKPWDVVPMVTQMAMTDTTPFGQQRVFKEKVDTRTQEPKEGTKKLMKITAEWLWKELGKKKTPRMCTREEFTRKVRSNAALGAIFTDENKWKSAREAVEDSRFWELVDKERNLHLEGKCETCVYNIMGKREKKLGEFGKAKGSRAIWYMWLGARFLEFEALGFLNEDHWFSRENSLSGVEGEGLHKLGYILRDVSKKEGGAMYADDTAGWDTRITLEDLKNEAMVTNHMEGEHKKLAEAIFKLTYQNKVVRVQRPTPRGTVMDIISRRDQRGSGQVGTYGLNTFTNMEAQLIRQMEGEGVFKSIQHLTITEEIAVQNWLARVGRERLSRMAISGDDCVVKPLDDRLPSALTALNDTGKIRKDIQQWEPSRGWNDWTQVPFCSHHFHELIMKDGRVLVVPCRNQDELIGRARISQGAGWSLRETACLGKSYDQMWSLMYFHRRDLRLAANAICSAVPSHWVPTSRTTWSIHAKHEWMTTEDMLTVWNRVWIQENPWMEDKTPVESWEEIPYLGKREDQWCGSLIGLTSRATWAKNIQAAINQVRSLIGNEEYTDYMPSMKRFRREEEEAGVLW

[9] = target: Potassium voltage-gated channel subfamily KQT member 2 (Rattus norvegicus, UniProt O88943, W236L); assay: KCNQ2 channel potentiators, dose response, mechanism study for KCNQ2 potentiator project, cell-based, automated electrophysiology (AID 2603); format: functional
Chain of Potassium voltage-gated channel subfamily KQT member 2 (O88943 whole entry W236L): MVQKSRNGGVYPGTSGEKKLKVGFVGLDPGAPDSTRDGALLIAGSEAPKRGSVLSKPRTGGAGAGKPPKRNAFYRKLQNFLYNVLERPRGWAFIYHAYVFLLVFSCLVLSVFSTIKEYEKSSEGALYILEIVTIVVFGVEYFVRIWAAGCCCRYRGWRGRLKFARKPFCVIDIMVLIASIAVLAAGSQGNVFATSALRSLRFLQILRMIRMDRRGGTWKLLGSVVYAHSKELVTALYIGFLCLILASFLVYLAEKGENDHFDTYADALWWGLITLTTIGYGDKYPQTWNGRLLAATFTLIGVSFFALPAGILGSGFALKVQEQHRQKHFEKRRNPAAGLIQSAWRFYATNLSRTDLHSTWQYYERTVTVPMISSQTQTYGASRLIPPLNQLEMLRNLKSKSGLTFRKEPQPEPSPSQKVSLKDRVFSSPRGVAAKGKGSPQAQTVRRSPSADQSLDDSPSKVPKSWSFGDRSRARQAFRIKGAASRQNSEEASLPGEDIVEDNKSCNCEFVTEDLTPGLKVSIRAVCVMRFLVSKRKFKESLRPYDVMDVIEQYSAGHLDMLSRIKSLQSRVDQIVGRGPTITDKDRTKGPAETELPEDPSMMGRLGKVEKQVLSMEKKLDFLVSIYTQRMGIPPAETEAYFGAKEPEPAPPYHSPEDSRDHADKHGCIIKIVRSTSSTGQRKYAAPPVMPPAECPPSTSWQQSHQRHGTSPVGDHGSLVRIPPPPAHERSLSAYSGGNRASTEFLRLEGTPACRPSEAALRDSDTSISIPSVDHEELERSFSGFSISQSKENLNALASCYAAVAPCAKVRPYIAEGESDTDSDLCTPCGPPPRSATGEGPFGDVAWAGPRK

[10] = control 3'UTR Renilla luciferase suppression, dose response, counter-screen for Shn3 inhibitor project, cell-based, Clone20-Shn3RL, cherry-picked (AID 624133); format: functional
[11] = target: T5, Replicative DNA helicase DnaB (Mycobacterium tuberculosis, UniProt P9WMR3); assay: DnaB intein splicing inhibitors, dose response, biochemical, cell-free fluorescence (AID 449749); format: functional
T5 sequence (P9WMR3 whole entry): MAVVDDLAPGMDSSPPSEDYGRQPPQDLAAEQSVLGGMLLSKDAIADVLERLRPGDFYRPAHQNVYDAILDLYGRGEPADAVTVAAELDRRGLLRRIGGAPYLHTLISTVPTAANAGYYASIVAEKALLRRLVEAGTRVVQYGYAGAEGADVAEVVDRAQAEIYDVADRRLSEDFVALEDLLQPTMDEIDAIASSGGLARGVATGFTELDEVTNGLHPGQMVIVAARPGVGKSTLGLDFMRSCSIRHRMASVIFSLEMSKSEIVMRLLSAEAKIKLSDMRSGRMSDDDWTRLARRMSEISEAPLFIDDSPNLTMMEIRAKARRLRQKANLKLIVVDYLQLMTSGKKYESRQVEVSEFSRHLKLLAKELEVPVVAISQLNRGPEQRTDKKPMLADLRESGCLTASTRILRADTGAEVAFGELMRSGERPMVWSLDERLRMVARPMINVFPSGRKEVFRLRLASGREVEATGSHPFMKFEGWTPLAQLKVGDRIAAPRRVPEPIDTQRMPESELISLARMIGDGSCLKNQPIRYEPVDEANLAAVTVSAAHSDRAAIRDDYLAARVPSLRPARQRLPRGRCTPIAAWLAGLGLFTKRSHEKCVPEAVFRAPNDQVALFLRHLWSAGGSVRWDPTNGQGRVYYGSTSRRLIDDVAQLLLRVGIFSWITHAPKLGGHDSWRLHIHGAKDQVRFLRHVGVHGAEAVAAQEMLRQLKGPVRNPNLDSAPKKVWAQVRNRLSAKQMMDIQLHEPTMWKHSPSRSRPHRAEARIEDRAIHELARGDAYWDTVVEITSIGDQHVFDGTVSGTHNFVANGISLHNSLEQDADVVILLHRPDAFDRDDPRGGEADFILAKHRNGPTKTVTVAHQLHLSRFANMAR

Vero = Vero cell cytotoxicity, cytotoxicity control for flavivirus capping enzyme inhibitors (AID 588742); format: functional; settings: Chlorocebus sabaeus
[12] = target: T4, High affinity choline transporter 1; assay: CHT inhibitors, dose response, cell-based, 10-point CRC, membrane potential dye (AID 588401); format: functional;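 further: membrane potential dye fluorescence of choline-evoked depolarization via CHT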
Protein RecA = target: T6, Protein RecA (Mycobacterium tuberculosis, UniProt P9WHJ3); assay: Fluorescence Cell-Free Homogeneous Dose Retest to Identify Inhibitors of RecA-Intein Splicing Activity. [Related pubchem assays (depositor defined):AID2097, AID2223, AID489010, AID492950]; format: functional
T6 sequence (P9WHJ3 whole entry): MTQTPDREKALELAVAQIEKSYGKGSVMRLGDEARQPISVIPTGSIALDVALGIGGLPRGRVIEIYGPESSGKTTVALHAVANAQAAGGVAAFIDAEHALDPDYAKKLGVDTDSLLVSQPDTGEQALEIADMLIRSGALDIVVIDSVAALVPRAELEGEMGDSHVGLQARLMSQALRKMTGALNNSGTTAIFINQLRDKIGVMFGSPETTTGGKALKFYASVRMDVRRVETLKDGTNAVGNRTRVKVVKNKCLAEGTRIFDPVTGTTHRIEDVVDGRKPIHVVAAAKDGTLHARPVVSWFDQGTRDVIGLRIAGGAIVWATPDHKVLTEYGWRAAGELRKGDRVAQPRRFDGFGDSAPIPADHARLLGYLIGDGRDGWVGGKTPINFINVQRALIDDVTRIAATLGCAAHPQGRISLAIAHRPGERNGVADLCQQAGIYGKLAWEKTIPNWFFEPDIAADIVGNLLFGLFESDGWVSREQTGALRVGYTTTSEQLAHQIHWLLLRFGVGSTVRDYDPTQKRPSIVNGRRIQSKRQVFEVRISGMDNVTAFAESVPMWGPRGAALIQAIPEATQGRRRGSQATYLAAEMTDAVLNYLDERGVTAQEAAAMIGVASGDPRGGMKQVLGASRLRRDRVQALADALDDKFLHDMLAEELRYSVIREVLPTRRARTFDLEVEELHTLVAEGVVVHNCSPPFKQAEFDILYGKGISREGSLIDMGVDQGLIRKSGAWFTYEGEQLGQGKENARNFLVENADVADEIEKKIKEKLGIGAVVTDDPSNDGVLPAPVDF

HeLa = assay: Cytotoxicity counterscreen assay for transcriptional activators of heat shock protein 70 (Hsp70). [Related pubchem assays: 1203, 1252 ]; format: functional; settings: Homo sapiens;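 further: cells exposed to compound for 16 hours before readout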
[13] = NIH-3T3 fibroblast cytotoxicity, dose response, cytotoxicity control, cell-based, fluorescence, Alamar Blue, secondary assay (AID 2327); format: functional;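 further: NIH-3T3 mouse fibroblasts cultured with fluconazole at 8 µg/mL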
[14] = Luminescence-based counterscreen assay for KLF5 inhibitors: dose response cell-based high throughput screening assay to identify cytotoxic compounds using the IEC-6 intestinal epithelial cell line. [Related pubchem assays: 1700 (Primary screen.), 1834 (Confirmation screen.), 1858 (Summary AID.), 1905 (Counterscreen.)]; format: functional
INS1 = assay: beta cell apoptosis inhibitors, cytokine rescue, dose response, luminescence, retest (AID 449756); format: functional, cell-based; settings: Rattus norvegicus;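 further: cell death triggered by IL-1 beta plus TNF-alpha plus IFN-gamma mixture; protective hits raise ATP signal compared with cytokine alone wells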
Nonstructural protein 1 = Nonstructural protein 1 (Influenza A virus, UniProt Q194T2); format: functional, Influenza A virus (A/California/07/2009(H1N1))
Chain of Nonstructural protein 1 (Q194T2 whole entry): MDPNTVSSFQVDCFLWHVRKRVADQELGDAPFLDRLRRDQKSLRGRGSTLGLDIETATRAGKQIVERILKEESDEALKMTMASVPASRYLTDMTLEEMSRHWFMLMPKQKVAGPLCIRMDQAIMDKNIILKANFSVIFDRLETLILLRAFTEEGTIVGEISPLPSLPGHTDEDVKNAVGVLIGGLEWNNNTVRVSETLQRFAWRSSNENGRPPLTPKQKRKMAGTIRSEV

[15] = inhibitors of intracellular T. cruzi replication, confirmation, NIH3T3 host cells, beta-gal luminescence (AID 2044); format: functional, cell-based;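 further: intracellular parasites grown in NIH/3T3 mouse fibroblasts as host cells; luminescent beta-galactosidase reporter signal from transgenic T. cruzi replicating inside host cells; inhibitors lower the luminescence signal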
HEK293 [16] = assay: inhibitors of LMP1-driven NF-kB reporter, dose response, cell-based, HEK293, luciferase, cherry-pick (AID 588343); format: functional; settings: Homo sapiens
[17] = cytotoxicity toward NIH3T3 fibroblasts, dose response, counter-screen, cell-based, ATP luminescence, mouse fibroblasts (AID 2010); format: functional;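 further: cells exposed to compound for about 90 hours before reading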
cells [18] = format: functional, cell-based
cells [19] = format: functional, cell-based; remark: listed apart in the source
[20] = C. albicans growth with fluconazole, confirmation, fluorescence, retest (AID 2467); format: functional, cell-based
cells [21] = assay: cells
[22] = HEK293T cell cytotoxicity, dose response, cytotoxicity control for HIV Vif inhibitor project, cherry-picks (AID 652208); format: functional, cell-based
[23] = Luminescence Cell-Based Dose Retest to Confirm Inhibitors of Cancer Stem Cells. [Related pubchem assays (depositor defined):AID2717, AID2721]; format: functional; settings: Homo sapiens
[24] = target: T1, Neuropeptide Y receptor type 1; format: functional
[25] = HEK293 cell cytotoxicity, dose response, cytotoxicity control, dry powder samples (AID 720567); format: functional, cell-based
[26] = target: T2, Neuropeptide Y receptor type 2; format: functional, cell-based

Cc1c(C(=O)O)[nH]c2ccc([N+](=O)[O-])cc12
EC50 (HEK293 [1]): 6.29 µM (active) | EC50 [2]: 6.64 µM (active) | EC50 [3]: 6.99 µM (active)

CC(C)c1nnc(NC(=O)c2nc(S(=O)(=O)Cc3ccc(F)cc3)ncc2Cl)s1
EC50 [4]: 3.33 µM (active) | IC50 [5]: 4.69 µM (active) | IC50 [6]: 6.08 µM (active) | AC50 [7]: 2.83 µM (active) | CC50 [8]: 28.1 µM (active) | IC50 (Genome polyprotein): 96 µM (active) | EC50 [9]: 4.47 µM (active) | AC50 [10]: 4.34 µM (active) | AC50 [11]: 3.54 µM (active) | CC50 (Vero): 27.1 µM (active) | IC50 [12]: 4.47 µM (active) | EC50 (Protein RecA): 2.73 µM (active)

CCOc1ccc(NC(=O)c2ccc(NC(S)=NC3CC3)cc2)cc1
CC50 (HeLa): > 99 µM (not active)

O=C(N/N=C/c1c(O)ccc2ccccc12)c1cccnc1
EC50 [13]: > 160 µM (inactive) | IC50 [14]: 3.67 µM (active) | AC50 (INS1): 794 nM (active) | IC50 (Nonstructural protein 1): 12.1 µM (active) | EC50 [15]: 3.14 µM (active) | AC50 (HEK293 [16]): 7.53 µM (active) | EC50 [17]: 9.03 µM (active) | EC50 (cells [18]): 8.55 µM (active) | EC50 (cells [19]): > 350 µM (not active) | EC50 [20]: 1.3 µM (active)

Cc1c(Cc2ccccc2)c(=O)oc2cc(O)cc(O)c12
IC50 (cells [21]): 36.1 µM (active)

Cc1ccc(CCC(=O)Nc2ncc(Cc3cc(Cl)ccc3Cl)s2)o1
AC50 [22]: 34.7 µM (active) | AC50 [23]: 251 nM (active) | IC50 [24]: 7.27 µM (active) | AC50 [25]: 7.96 µM (active) | IC50 [26]: 9.88 µM (active)
